For experiment [1], the system named is IKKα-regulated NF-κB transcriptional activation in IKKβ−/− MEFs. The experiment in a line: IL-1β-stimulated NF-κB-luciferase transcriptional activity in IKKβ knockout MEFs. Type of experiment: cell-based, mouse. The settings on record: maximal concentrations of 50–100 μM. The procedure: To provide further evidence for cellular activity, mouse embryonic fibroblasts lacking the IKKβ kinase subunit were utilized to investigate the potency of both compounds against agonist-stimulated IKKα-regulated NF-κB transcriptional activation. Cells were infected with an adenovirus encoding an NF-κB-luciferase promoter gene. NF-κB transcriptional activity driven by IKKα was stimulated specifically using IL-1β,[41] and the ability of the compounds to inhibit this response was assessed. […] As IKKα plays a lesser role in the canonical NF-κB cascade,[42] particularly the rapid and transient stimulated degradation of IκBα, selective IKKα inhibitors should not affect TNF-α induced IκBα degradation and p65 phosphorylation.
(§1) U2OS cells were cultured with McCoy’s 5A modified medium and MEF were cultured with DEME medium containing 10% (v/v) FCS and medium was changed every 2 d thereafter until cells became confluent. Cells were incubated at 37 °C in humidified air with 5% CO2 and rendered quiescent by serum deprivation for 24 h prior to stimulation in serum-free medium.
An adenoviral vector encoding NFκB-luciferase (Adv.NFκB-Luc) was purchased from Vector Biolabs (University of Pennsylvania, Philadelphia, US). Large-scale production of high titer recombinant adenovirus was performed by routine methods.[47] IKKβ knockout mouse embryonic fibroblasts (MEFs; kindly provided by Prof. I. Verma, UCSD, USA) were counted when approximately 60–70% confluent in T75 cm^2 flasks and infected with adenovirus up to 300 pfu/cell^–1 for 24 h in 10% DMEM. Cells were then lifted from the flasks and plated into 96-well clear bottom, black luciferase plates and allowed to settle for 24 h before serum starved overnight. Cells were then stimulated with the appropriate agonists for the indicated times and reactions terminated by addition of lysis buffer containing 0.2 mM luciferin substrate. Relative light units (RLU) were measured using a Trilux microbeta counter (luminometer).

In experiment [2] the test system is IKKβ-dependent IκBα degradation in U2OS cells. Put plainly: TNFα-induced IκBα degradation in U2OS cells, Western blot. Type of experiment: cell-based, human. As to conditions: highest concentration 100 μM, TNF-α (10 ng/mL) 30 min. The procedure: (§2) Two IKKβ-dependent readouts were selected to assess selectivity over IKKβ. First, TNFα stimulates IκBα degradation through activation of IKKβ and if IKKβ is inhibited, then a band corresponding to the IκBα protein should be evident by Western analysis. Second, IKKβ phosphorylates p65 on Ser536, which can also be assessed by Western blot analysis. Only at the highest concentration (100 μM) of 48 was IκBα degradation and p65 (Ser536) phosphorylation inhibited (Figure 9b). Even at this high concentration, these effects were not apparent following pretreatment with 47 (Figure 10b).
(§3) Figure 9 Effect of compound 48 on (a) FCS-stimulated noncanonical and (b) TNF-α-induced canonical NF-kB activation in U2OS cells. […] Whole cell lysate were prepared, separated by SDS-PAGE, and assessed for (a) inhibition of p100 phosphorylation (Ser866/870) and (b) IkB-α and p-p65 (Ser536) status. […]
(§4) Figure 10 Effect of compound 47 on (a) FCS-stimulated noncanonical and (b) TNF-α-induced canonical NF-kB activation in U2OS cells. […] Whole cell lysate were prepared, separated by SDS-PAGE, and assessed for (a) inhibition of p100 phosphorylation (Ser866/870) and (b) IkB-α and p-p65 (Ser536) status. […]
(§5) Whole cell lysates were prepared from U2OS and status of IκBα, p65, p-p65 (Ser536), and p-p100 (Ser 866/870) assessed by Western blotting as described in Mackenzie et al. (2007).[46]

Experiment [3] concerns IKKα-driven p100 phosphorylation in U2OS cells. Put plainly: FCS-stimulated p100 phosphorylation (Ser866/870) in U2OS cells, Western blot. Format: cell-based, human. As to conditions: 1 h pretreatment, FCS (10%) for 4 h, blots quantified, read-out: IC50 for inhibition of p100 phosphorylation. As for the experimental part:
as §2
Figure 9 Effect of compound 48 on (a) FCS-stimulated noncanonical and (b) TNF-α-induced canonical NF-kB activation in U2OS cells. Cells were pretreated with 48 1 h prior to stimulation with FCS (10%) for 4 h or TNF-α (10 ng/mL) for 30 min. Whole cell lysate were prepared, separated by SDS-PAGE, and assessed for (a) inhibition of p100 phosphorylation (Ser866/870) and (b) IkB-α and p-p65 (Ser536) status. […] The results are representative of three independent experiments.
Figure 10 Effect of compound 47 on (a) FCS-stimulated noncanonical and (b) TNF-α-induced canonical NF-kB activation in U2OS cells. Cells were pretreated with 47 1 h prior to stimulation with FCS (10%) for 4 h or TNF-α (10 ng/mL) for 30 min. Whole cell lysate were prepared, separated by SDS-PAGE, and assessed for (a) inhibition of p100 phosphorylation (Ser866/870) and (b) IkB-α and p-p65 (Ser536) status. […] The results are representative of three independent experiments.
as §1, §5
(In general: In western blotting, separated proteins are transferred to a membrane and probed.)

Experiment [4] has as its system IKKβ-dependent p65 (Ser536) phosphorylation in U2OS cells. The experiment in a line: TNFα-induced p65 (Ser536) phosphorylation in U2OS cells, Western blot. As to conditions: highest concentration 100 μM, TNF-α (10 ng/mL) 30 min. Type of experiment: cell-based, human. As for the experimental part: as §2, §3, §4, §5

Molecules are shown by their SMILES. “Also recorded” adds a separate entry of the source. Read-outs that look alike come from different tables or passages of the source.

In general, IC50 refers to the concentration needed to halve the response being measured. Regarding `N#Cc1c[nH]c2nc(N)nc(-c3ccc(S(N)(=O)=O)cc3)c12` [Compound 48, 4-(2-Amino-5-cyano-7H-pyrrolo[2,3-d]pyrimidin-4-yl)benzenesulfonamide], the “effect on NF-κB transcriptional activity” value in experiment [1] was “abolished transcriptional activity”. The “% stim” value in experiment [1] (Il-1β+DMSO = 100%) is −40.9 ± 4.6%. The “inhibition of TNFα-stimulated IκBα degradation” value in experiment [2] was “inhibited; also recorded: small effect”. The IC50 in experiment [3] is 5.8 µM; in experiment [3] (Homo sapiens, U2OS), 8.8 µM. Further, the “inhibition of TNFα-stimulated p65 (Ser536) phosphorylation” value in experiment [4] is listed as “inhibited; also recorded: small effect”.

These data come from publication PMC5578373, “Inhibitory Kappa B Kinase α (IKKα) Inhibitors That Recapitulate Their Selectivity in Cells against Isoform-Related Biomarkers” (Journal of Medicinal Chemistry, 2017).
